Data from patent US10441628B2, “High activity tumour inhibitor and preparation method and use thereof” (BAO KANG BIOMEDICAL HEALTHCARE INC, priority 2014, dated 2019).
Like-named read-outs stand apart in the source and are kept apart here. Positions of bridges follow the written chain, without caps; N, C: chain ends. Non-standard residues stand in square brackets, D forms with d. Residues, ends and D or L forms follow the SMILES beside them. No end group written: not given here. *: point of attachment. Phe(3-Cl) = N[C@@H](Cc1cccc(Cl)c1)C(=O)O; Stearoyl = CCCCCCCCCCCCCCCCCC(=O)*; hCys = N[C@@H](CCS)C(=O)O; Nle = CCCC[C@H](N)C(=O)O; Orn = NCCC[C@H](N)C(=O)O; Dab = NCC[C@H](N)C(=O)O

Tests used:
[1] = Cell penetration or infiltration of polypeptides; type: cell-based; conditions: penetration of the peptide with RRMKWKK taken as 100%
Description: In this example, the sequence was modified based on SEQ ID NO.: 1. Some preferred modification based on the tested results included: adding a disulfide linkage within the peptide, or adding a cell-penetrating element.

[2] = plasma
Experimental: (§4) For the YAP inhibitory polypeptides modified in above (a) and (b), the IC50 values for TEAD binding and the stability in plasma were measured.

BEL7404 [3] = type: cell-based
Experimental: (§1) The hepatoma cell line BEL7404 (purchased from The Chinese Academy of Sciences cell bank) was a cell line with high expression of YAP protein; HCCLM3 (purchased from The Chinese Academy of Sciences cell bank) was a cell line with low expression of YAP protein. The hepatoma cell lines (BEL7404 or HCCLM3) were inoculated into a 96-well plate at the concentration of 2000 cells/well, and incubated overnight in RPMI1640 containing 1% bovine serum at 37° C. The hepatoma cell lines were treated with polypeptides having different concentrations at 37° C. for 72 h.
(§2) Moreover, IC50 values of the cells in 1.1 were determined using CCK-8 kit.
(§3) The polypeptide represented by SEQ ID NO.:1 was further modified. The IC50 values of the polypeptides at a concentration of 1% in cell cultivating for 72 h were measured.

HCCLM3 = type: cell-based
Experimental: as §1, §2, §3

BEL7404 [4] = assay: Cell proliferation inhibition of BEL7404 by liposome formulations / acylated polypeptides, CCK-8; type: cell-based
MHCC97L = assay: Cell proliferation inhibition of MHCC97L by liposome formulations / acylated polypeptides, CCK-8; type: cell-based
Experimental: MHCC97L (ATCC) cells were seeded in 96-well plates with 10% FBS DMEM medium at a density of 4000 cells/well and incubated overnight at 37° C. […] The cell viability was determined by CCK-8 kit.

[5] = Stability in plasma (residual peptide)
Experimental: as §4

TEAD = TEAD (UniProt P28347); assay: TEAD binding (TR-FRET test)
TEAD, sequence (P28347 whole entry): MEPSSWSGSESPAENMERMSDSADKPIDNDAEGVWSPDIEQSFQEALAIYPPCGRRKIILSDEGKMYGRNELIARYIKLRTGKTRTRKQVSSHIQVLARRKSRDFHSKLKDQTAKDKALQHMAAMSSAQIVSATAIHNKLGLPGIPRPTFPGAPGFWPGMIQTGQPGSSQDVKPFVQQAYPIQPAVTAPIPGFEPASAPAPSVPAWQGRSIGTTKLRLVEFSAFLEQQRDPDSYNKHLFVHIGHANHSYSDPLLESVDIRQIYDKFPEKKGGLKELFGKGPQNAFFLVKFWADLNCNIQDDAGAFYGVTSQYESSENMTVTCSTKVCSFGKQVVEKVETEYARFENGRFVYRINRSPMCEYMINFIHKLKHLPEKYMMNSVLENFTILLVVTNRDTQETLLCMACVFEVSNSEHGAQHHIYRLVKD
Experimental: The interaction of the two molecules makes the two fluorophores close to each other and generate energy transfer, and then fluoresce at specific wavelength is transmitted.
The sequences of the modified peptides were represented by SEQ ID NOs.: 8 and 9. The IC50 values for TEAD binding and stability in plasma were measured.
The modified polypeptides were tested to measure IC50 values for TEAD binding and stability in plasma.

in vitro = conditions: plasma
Experimental: as §4

3: Peptide (SEQ ID NO.: 1) + Cell-penetrating element 1 (RRMKWKK, SEQ ID NO.: 13) (VPMRLRKLPDSFFKPPERRMKWKK; cell penetrating element; listed as Homo sapiens) [Peptide 3]
Percentage of Cell penetration or infiltration [1]: 100% | Stability (4 h) [2]: 49%

4: Peptide (SEQ ID NO.: 1) + Cell-penetrating element 2 (RGRKKRRQRRR, SEQ ID NO.: 14) (VPMRLRKLPDSFFKPPERGRKKRRQRRR; cell penetrating element; listed as Homo sapiens) [Peptide 4]
Percentage of Cell penetration or infiltration [1]: 135%

32 (VPXLXKKXPASFKCPPRRMKWKK; (3)..(3) Xaa=(3Cl-)F; (5)..(5) Xaa=Hcy; (8)..(8) Xaa=Nle) [compound 32]
IC50 (BEL7404 [3]; concentration of 1% in cell cultivating for 72 h, read-out: IC50 BEL7404): 38.4 ± 3.8 µM | IC50 (HCCLM3; concentration of 1% in cell cultivating for 72 h, read-out: IC50 HCCLM3): 319 ± 17.5 µM

CCCCCCCCCCCCCCCCCC(=O)NCCCC[C@H](NC(=O)[C@@H]1CSSCC[C@H](NC(=O)[C@H](CCCCN)NC(=O)[C@H](CCCCN)NC(=O)[C@H](CC(C)C)NC(=O)[C@H](Cc2cccc(Cl)c2)NC(=O)[C@@H]2CCCN2C(=O)[C@@H](NC(C)=O)C(C)C)C(=O)N[C@@H](CCCC)C(=O)N2CCC[C@H]2C(=O)N[C@@H](C)C(=O)N[C@@H](CO)C(=O)N[C@@H](Cc2ccccc2)C(=O)N[C@@H](CCCCN)C(=O)N2CCC[C@H]2C(=O)N2CCC[C@H]2C(=O)N1)C(N)=O [P49 polypeptide] (Ac-VP[Phe(3-Cl)]LKK[hCys][Nle]PASFKPPCK(Stearoyl)-NH2; disulfide 7-16)
IC50 (BEL7404 [4]): 2.02 ± 0.39 µM | IC50 (MHCC97L): 7.83 ± 2.69 µM

CSCC[C@H](NC(=O)[C@@H]1CCCN1C(=O)[C@@H](N)C(C)C)C(=O)N[C@H]1CCSSC[C@@H](C(=O)N[C@@H](CCCCN)C(=O)N2CCC[C@H]2C(=O)N2CCC[C@H]2C(=O)N[C@@H](CCC(=O)O)C(=O)O)NC(=O)[C@H](Cc2ccccc2)NC(=O)[C@H](CO)NC(=O)[C@H](CC(=O)O)NC(=O)[C@@H]2CCCN2C(=O)[C@H](CC(C)C)NC(=O)[C@H](CCCCN)NC(=O)[C@H](CCCNC(=N)N)NC(=O)[C@H](CC(C)C)NC1=O [Peptide 2]
Percentage of Cell penetration or infiltration [1]: 8% | remaining at 4 h ([5]; plasma, Stability (4 h), plasma, percentage of residual peptides after 4 h): 93%

CSCC[C@H](NC(=O)[C@@H]1CCCN1C(=O)[C@@H](N)C(C)C)C(=O)N[C@@H](CCCNC(=N)N)C(=O)N[C@@H](CC(C)C)C(=O)N[C@@H](CCCNC(=N)N)C(=O)N[C@@H](CCCCN)C(=O)N[C@@H](CC(C)C)C(=O)N1CCC[C@H]1C(=O)N[C@@H](CC(=O)O)C(=O)N[C@@H](CO)C(=O)N[C@@H](Cc1ccccc1)C(=O)N[C@@H](Cc1ccccc1)C(=O)N[C@@H](CCCCN)C(=O)N1CCC[C@H]1C(=O)N1CCC[C@H]1C(=O)N[C@@H](CCC(=O)O)C(=O)O [SEQ ID NO.: 1]
IC50 (BEL7404 [3]; 72 h): 388 ± 43.6 µM | IC50 (HCCLM3; 72 h): 809 ± 27.4 µM | stability (in words) [5]: low stability | remaining at 4 h ([5]; plasma): 0% | Stability (>24 h) ([5]; plasma, percentage of residual peptides after >24 h): 0%

CC(C)C[C@@H]1NC(=O)[C@@H](NC(=O)[C@H](Cc2ccccc2)NC(=O)[C@@H]2CCCN2C(=O)[C@@H](N)C(C)C)CCSSC[C@@H](C(=O)N[C@@H](CCCCN)C(=O)N2CCC[C@H]2C(=O)N2CCC[C@H]2C(=O)N[C@@H](CCC(=O)O)C(=O)O)NC(=O)[C@H](Cc2ccccc2)NC(=O)[C@H](CO)NC(=O)[C@H](CC(=O)O)NC(=O)[C@@H]2CCCN2C(=O)[C@H](CC(C)C)NC(=O)[C@H](CCCN)NC(=O)[C@H](CCCNC(=N)N)NC1=O [compound 5] (H-VPF[hCys]LR[Orn]LPDSFCKPPE-OH; disulfide 4-13 (inferred); N-terminus and C-terminus assumed)
IC50 (TEAD): 0.043 µM | remaining at 4 h (in vitro): 99%

CC(C)C[C@@H]1NC(=O)[C@@H](NC(=O)[C@H](Cc2ccccc2)NC(=O)[C@@H]2CCCN2C(=O)[C@@H](N)C(C)C)CCSSC[C@@H](C(=O)N[C@@H](CCCCN)C(=O)N2CCC[C@H]2C(=O)N2CCC[C@H]2C(=O)N[C@@H](CCC(=O)O)C(=O)O)NC(=O)[C@H](Cc2ccccc2)NC(=O)[C@H](CO)NC(=O)[C@H](CC(=O)O)NC(=O)[C@@H]2CCCN2C(=O)[C@H](CC(C)C)NC(=O)[C@H](CCN)NC(=O)[C@H](CCCNC(=N)N)NC1=O [compound 6] (H-VPF[hCys]LR[Dab]LPDSFCKPPE-OH; disulfide 4-13 (inferred); N-terminus and C-terminus assumed)
IC50 (TEAD): 0.028 µM | remaining at 4 h (in vitro): 98%

CSCC[C@H](NC(=O)[C@@H]1CCCN1C(=O)[C@@H](N)C(C)C)C(=O)N[C@H]1CSSC[C@@H](C(=O)N[C@@H](Cc2c[nH]cn2)C(=O)N2CCC[C@H]2C(=O)N2CCC[C@H]2C(=O)N[C@@H](CCC(=O)O)C(=O)O)NC(=O)[C@H](Cc2ccccc2)NC(=O)[C@H](CO)NC(=O)[C@H](CCC(=O)O)NC(=O)[C@@H]2CCCN2C(=O)[C@H](CC(C)C)NC(=O)[C@H](CCCCN)NC(=O)[C@H](CCCNC(=N)N)NC(=O)[C@H](CC(C)C)NC1=O [compound 8] (H-VPMCLRKLPESFCHPPE-OH; disulfide 4-13; N-terminus and C-terminus assumed)
IC50 (TEAD): 0.028 µM | remaining at 4 h (in vitro): 105%

CSCC[C@H](NC(=O)[C@@H]1CCCN1C(=O)[C@@H](N)C(C)C)C(=O)N[C@H]1CCSSC[C@@H](C(=O)N[C@@H](CC(=O)O)C(=O)N2CCC[C@H]2C(=O)N2CCC[C@H]2C(=O)N[C@@H](CCC(=O)O)C(=O)O)NC(=O)[C@H](Cc2ccccc2)NC(=O)[C@H](CO)NC(=O)[C@H](CS)NC(=O)[C@@H]2CCCN2C(=O)[C@H](CC(C)C)NC(=O)[C@H](CCCCN)NC(=O)[C@H](CCCNC(=N)N)NC(=O)[C@H](CC(C)C)NC1=O [compound 9] (H-VPM[hCys]LRKLPCSFCDPPE-OH; disulfide 4-13)
IC50 (TEAD): 0.025 µM | remaining at 4 h (in vitro): 100%

PAGWEMAKTSSGQRYF [compound 20]
IC50 (BEL7404 [3]; 72 h): 444 ± 46.5 µM | IC50 (HCCLM3; 72 h): > 1000 µM

PQGQGPPSGPGQPAPA [compound 16]
IC50 (BEL7404 [3]; 72 h): 242 ± 27.2 µM | IC50 (HCCLM3; 72 h): > 1000 µM
